Target: human TLR7 (Homo sapiens (Human), UniProt Q9NYK1)
Experiment: Test for evaluating the inhibition of the activation of human TLR7 (SEAP reporter, TLR7/NF-κB/SEAPorter HEK293 cell)
Format: cell-based
Conditions: R-848 200 nmol/L; for inhibitory effect against TLR7 in the test for evaluating inhibition of the activation of TLR7: SEAP activity, result in words; for IC50: SEAP reporter
Procedure, shortened: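 The readout is secreted alkaline phosphatase under NF-κB response-element control in TLR7/NF-κB/SEAPorter HEK293 cells, which stably express full-length human TLR7. Cells were plated at 5×10^4 per well and grown overnight at 37° C, 5% CO2, in DMEM/10% FBS/blasticidin.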

human TLR7, sequence (Q9NYK1 27-1049): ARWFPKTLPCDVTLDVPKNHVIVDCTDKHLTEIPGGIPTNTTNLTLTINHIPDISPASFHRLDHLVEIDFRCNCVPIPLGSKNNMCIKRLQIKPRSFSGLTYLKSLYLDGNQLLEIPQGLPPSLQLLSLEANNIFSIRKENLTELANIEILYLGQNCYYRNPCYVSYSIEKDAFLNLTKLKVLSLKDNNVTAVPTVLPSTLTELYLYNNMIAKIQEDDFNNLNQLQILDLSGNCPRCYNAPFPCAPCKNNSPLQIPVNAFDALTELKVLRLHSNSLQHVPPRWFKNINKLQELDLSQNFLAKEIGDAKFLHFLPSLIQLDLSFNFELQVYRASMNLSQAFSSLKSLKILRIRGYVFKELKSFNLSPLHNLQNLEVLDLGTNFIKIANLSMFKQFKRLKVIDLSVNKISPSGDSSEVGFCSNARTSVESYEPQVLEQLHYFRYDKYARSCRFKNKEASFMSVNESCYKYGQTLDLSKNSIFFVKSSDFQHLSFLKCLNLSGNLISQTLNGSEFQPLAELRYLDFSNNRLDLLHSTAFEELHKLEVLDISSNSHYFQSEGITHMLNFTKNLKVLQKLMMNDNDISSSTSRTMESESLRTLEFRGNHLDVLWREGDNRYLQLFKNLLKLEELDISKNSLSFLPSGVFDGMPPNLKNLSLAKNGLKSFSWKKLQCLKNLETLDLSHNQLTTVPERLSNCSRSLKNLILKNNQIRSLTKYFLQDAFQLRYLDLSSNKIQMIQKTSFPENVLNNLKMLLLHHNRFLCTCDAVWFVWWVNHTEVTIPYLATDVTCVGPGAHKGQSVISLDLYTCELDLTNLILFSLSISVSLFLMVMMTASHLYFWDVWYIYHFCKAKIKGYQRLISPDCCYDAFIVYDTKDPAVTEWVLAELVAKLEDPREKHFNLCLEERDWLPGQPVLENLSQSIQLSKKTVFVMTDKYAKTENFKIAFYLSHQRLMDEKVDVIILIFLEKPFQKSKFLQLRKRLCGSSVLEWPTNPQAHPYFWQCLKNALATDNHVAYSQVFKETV

SMILES | inhibitory effect against TLR7 in the test for evaluating inhibition of the activation of TLR7 | IC50
COc1nc(C)c2nc(-c3cncnc3)n(Cc3ccc(C4CN5CCC4CC5)cc3F)c2n1 (centres unmarked) [Example 346] | potent inhibitory effect against TLR7 | 19 nM
CCCCOc1nc(C)c2nc(-c3cncc(OC)c3)n(Cc3ccccc3)c2n1 [Example 142] | – | 6600 nM
CCOc1nc(C)c2nc(-c3cncc(F)c3)n(Cc3ccc(C4CN5CCC4CC5)nc3C(F)(F)F)c2n1 (centres unmarked) [Example 381] | – | 1390 nM
CCOc1nc(C)c2nc(-c3cncc(F)c3)n(Cc3ccc(C4CN5CCC4CC5)cc3OC)c2n1 (centres unmarked) [Example 372, 9-[4-(1-azabicyclo[2.2.2]oct-3-yl)-2-methoxybenzyl]-2-ethoxy-8-(5-fluoropyridin-3-yl)-6-methyl-9H-purine] | potent inhibitory effect against TLR7 | 11 nM
COc1nc(C)c2nc(-c3cncc(C#N)c3)n(Cc3ccc(C4CN5CCC4CC5)cc3F)c2n1 (single isomer, unassigned) [Example 402, 5-{9-[4-(1-azabicyclo[2.2.2]oct-3-yl)-2-fluorobenzyl]-2-methoxy-6-methyl-9H-purin-8-yl}pyridine-3-carbonitrile] | – | 132 nM
COc1nc(C)c2nc(-c3cccc(C#N)c3)n(Cc3ccc(C4CN5CCC4CC5)cc3F)c2n1 (centres unmarked) [Example 344, 3-{9-[4-(1-azabicyclo[2.2.2]oct-3-yl)-2-fluorobenzyl]-2-methoxy-6-methyl-9H-purin-8-yl}benzonitrile] | potent inhibitory effect against TLR7 | 12 nM
CCN1C2CCC1CC(Oc1ccc(Cn3c(-c4cncc(C#N)c4)nc4c(C)nc(OC)nc43)c(F)c1)C2 (stereo not drawn) [Example 296, 5-[9-(4-{[(3-endo)-8-ethyl-8-azabicyclo[3.2.1]oct-3-yl]oxy}-2-fluorobenzyl)-2-methoxy-6-methyl-9H-purin-8-yl]pyridine-3-carbonitrile] | potent inhibitory effect against TLR7 | 21 nM
COc1nc(C)c2nc(-c3cccnc3)n(Cc3ccc(C4CN5CCC4CC5)c(F)c3)c2n1 (centres unmarked) [Example 380] | – | 225 nM
CCCCOc1nc(N)c2nc(-c3cncc(COC)c3)n(Cc3ccccc3)c2n1 [Example 19] | – | 1400 nM
CCOc1nc(N)c2nc(-c3cncc(F)c3)n(Cc3ccc(C(=O)N4CCC(C)CC4)cc3)c2n1 [Example 144] | – | 2600 nM
CCOc1nc(N)c2nc(-c3cncc(C)c3)n(Cc3ccc(CN(C)C)cc3)c2n1 [Example 33] | – | 820 nM
CCCCOc1nc(N)c2nc(-c3cccnc3)n(Cc3cccnc3)c2n1 [Example 3] | – | 9200 nM
CCCCOc1nc(N)c2nc(-c3cncc(CO)c3)n(Cc3ccccc3)c2n1 [Example 20] | – | 22500 nM
COc1nc(C)c2nc(-c3cncc(C#N)c3)n(Cc3ccc(C4CN5CCC4CC5)cc3F)c2n1 (single isomer, unassigned) [Example 403, 5-{9-[4-(1-azabicyclo[2.2.2]oct-3-yl)-2-fluorobenzyl]-2-methoxy-6-methyl-9H-purin-8-yl}pyridine-3-carbonitrile] | potent inhibitory effect against TLR7 | 21 nM

Next, values leading:

inhibitory effect against TLR7 in the test for evaluating inhibition of the activation of TLR7 | IC50 | SMILES
potent inhibitory effect against TLR7 | 27 nM | COc1nc(C)c2nc(-c3cncc(C#N)c3)n(Cc3ccc(CN4C[C@@H]5C[C@H]4CN5C)cc3F)c2n1 [Example 308, 5-[9-(2-fluoro-4-{[(1S,4S)-5-methyl-2,5-diazabicyclo[2.2.1]hept-2-yl]methyl}benzyl)-2-methoxy-6-methyl-9H-purin-8-yl]pyridine-3-carbonitrile]
potent inhibitory effect against TLR7 | 57 nM | CCOc1nc(C)c2nc(-c3cncc(F)c3)n(Cc3ccc(C4CN(C)CCO4)cc3F)c2n1 (centres unmarked) [Example 307]
potent inhibitory effect against TLR7 | 63 nM | CCOc1nc(C)c2nc(-c3cncc(F)c3)n(Cc3ccc(CN4CCCCC4)cc3)c2n1 [Example 264]
– | 250 nM | COCCOc1nc(N)c2nc(-c3cncc(F)c3)n(Cc3ccc(CN4CCCCC4)cc3)c2n1 [Example 91]
– | 248 nM | CCOc1nc(C)c2nc(-c3cncc(F)c3)n(Cc3cnn(CCN4CCOCC4)c3)c2n1 [Example 248]
potent inhibitory effect against TLR7 | 3 nM | CCN1CCC(c2ccc(Cn3c(-c4cncc(F)c4)nc4c(C)nc(OC)nc43)c(F)c2)CC1 [Example 284, 9-[4-(1-ethylpiperidin-4-yl)-2-fluorobenzyl]-8-(5-fluoropyridin-3-yl)-2-methoxy-6-methyl-9H-purine]
potent inhibitory effect against TLR7 | 28 nM | COc1nc(C)c2nc(-c3cccnc3)n(Cc3ccc(CN4C[C@@H]5C[C@H]4CN5C)cc3F)c2n1 [Example 310, 9-(2-fluoro-4-{[(1S,4S)-5-methyl-2,5-diazabicyclo[2.2.1]hept-2-yl]methyl}benzyl)-2-methoxy-6-methyl-8-(pyridin-3-yl)-9H-purine]
– | 139 nM | COc1nc(C)c2nc(-c3cncc(F)c3)n(Cc3ccc(OCCN(C)C)cc3F)c2n1 [Example 420]
– | 810 nM | CCOc1nc(N)c2nc(-c3cncc(F)c3)n(Cc3ccc(CN(C)CC(F)F)cc3)c2n1 [Example 102]
– | 272 nM | CCOc1nc(C)c2nc(-c3cncc(F)c3)n(Cc3cnn(CC4CCNC4)c3)c2n1 (centres unmarked) [Example 270]
potent inhibitory effect against TLR7 | 10 nM | CCOc1nc(C)c2nc(-c3cncc(F)c3)n(Cc3ccc(CN4C[C@@H]5C[C@H]4CN5C)cc3)c2n1 [Example 109, 2-ethoxy-8-(5-fluoropyridin-3-yl)-6-methyl-9-(4-{[(1S,4S)-5-methyl-2,5-diazabicyclo[2.2.1]hept-2-yl]methyl}benzyl)-9H-purine]
– | 142 nM | CCOc1nc(C)c2nc(-c3cncc(F)c3)n(Cc3cnc(CC4CCN(C)CC4)cc3OC)c2n1 [Example 281]
– | 146 nM | CCOc1nc(N)c2nc(-c3cncc(F)c3)n(Cc3ccc(CN4CCC(F)(F)CC4)cc3)c2n1 [Example 99]

From patent US10703755B2, “Substituted purine derivative” (SUMITOMO DAINIPPON PHARMA CO., LTD., priority 2016, dated 2020)
